Assay [1] concerns FABP4, a PPARG target gene, in 5637 (PPARG amplified) cells. As to the kind of experiment: Bladder cancer pharmacodynamic assay, 5637 cell assay (qPCR of FABP4). Type of assay: cell-based. Particulars: 5637 cells, 24 hours, 100 nM compound, relative to DMSO control. The method, then:
Bladder Cancer Pharmacodynamic Assay
5637 (PPARG amplified) and HT1197 (RXRA S427F mutation) cells were used for assessment of modulation of PPARG target genes using quantitative PCR. Cells were treated for 24 hours with PPARG inverse agonists prior to analysis of FABP4 (IDT, Cat: Hs.PT 58.20106818) and ANGPTL4 (IDT, Cat: Hs.PT 58.25480012) expression, with expression of the housekeeping gene TBP (IDT, Cat: Hs.PT 58v.39858774) used to normalize expression across samples. Quantitative PCR was performed using an ABI QuantStudio 7 Flex Reaction system. Data were analyzed and reported relative to DMSO control using the comparative Ct method (ΔΔCt).

Assay [2] concerns the target T1, PPARG/RXRA LBD heterodimer (Homo sapiens, UniProt P37231).
T1 construct: His-TEV-Q203-Y477; Uniprot ID P37231-2; made in house; host or cells: E. coli
T1 sequence (P37231 203-477 isoform P37231-2): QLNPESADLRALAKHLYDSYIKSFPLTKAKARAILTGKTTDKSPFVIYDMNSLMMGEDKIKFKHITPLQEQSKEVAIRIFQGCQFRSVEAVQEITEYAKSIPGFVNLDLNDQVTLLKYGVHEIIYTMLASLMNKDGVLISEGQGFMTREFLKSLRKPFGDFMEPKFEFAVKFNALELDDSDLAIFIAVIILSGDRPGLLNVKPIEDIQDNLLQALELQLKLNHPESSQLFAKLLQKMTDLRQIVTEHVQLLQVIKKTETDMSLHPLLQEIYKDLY
T1 sequence (P19793 228-462 partner limits assumed): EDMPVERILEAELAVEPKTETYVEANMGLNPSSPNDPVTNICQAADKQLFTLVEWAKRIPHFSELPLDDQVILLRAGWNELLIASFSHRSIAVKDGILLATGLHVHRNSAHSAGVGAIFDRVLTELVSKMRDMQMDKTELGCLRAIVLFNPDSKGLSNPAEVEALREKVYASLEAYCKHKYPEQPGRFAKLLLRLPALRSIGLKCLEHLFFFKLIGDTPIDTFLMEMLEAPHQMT
As to the kind of experiment: PPARγ-MED1 blockade assay (TR-FRET, biotinylated MED1 LxxLL peptide). In kind it is biochemical. The note with it: WT PPARG LBD/WT RXRA LBD, 80 nM Rosiglitazone, 3 hours. In short, it runs like this: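 TR-FRET measuring biotinylated MED1 LxxLL peptide association with 2 nM each His-PPARG LBD (Q203-Y477) and Flag-RXRA LBD (E228-T462), E. coli expressed. Read after 3 h incubation; ratios normalized to DMSO (0%) and GW9662 minimum (100%) for IC50 and maximal MED1 repulsion.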

In assay [3] the target is T2, PPARG/RXRA LBD heterodimer (Homo sapiens, UniProt P37231).
T2 construct: His-TEV-Q203-Y477; Uniprot ID P37231-2; made in house; host or cells: E. coli
The experiment in a line: PPARγ-NCOR1 recruitment assay (TR-FRET, biotinylated NCOR1 ID2 peptide). In kind it is biochemical. The note with it: 80 nM Rosiglitazone, 3 hours, read-out: PPARG-NCOR recruitment assay EC50. The method, boiled down: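 2 nM each of E. coli-expressed PPARG LBD (Q203-Y477) and RXRA LBD (WT or S427F, E228-T462) with biotinylated NCOR1 ID2 peptide, incubated 3 h; TR-FRET read at Ex/Em 615/665. Ratios normalized to DMSO (0%) and T0070907 maximum (100%) for EC50 and maximal recruitment.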
T2 sequence (O75376 2251-2273 partner, one chain of several): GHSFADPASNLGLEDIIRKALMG

Assay [4] deals with ANGPTL4, a PPARG target gene, in HT1197 (RXRA S427F mutation) cells. As to the kind of experiment: Bladder cancer pharmacodynamic assay, HT1197 cell assay (qPCR of ANGPTL4). The note with it: Homo sapiens, 24 hours; for inhibition at 0.1 µM: 100 nM compound, relative to DMSO control. In kind it is cell-based. In short, it runs like this:
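5637 (PPARG amplified) and HT1197 (RXRA S427F) cells treated 24 h with PPARG inverse agonists. FABP4 and ANGPTL4 expression measured by qPCR, normalised to TBP, and reported relative to DMSO control by ΔΔCt.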

For the compound `N#Cc1ccc(Cl)c(-c2cc(=O)c3c(F)cc(F)cc3[nH]2)c1` [Example 1, 4-chloro-3-(5,7-difluoro-4-oxo-1,4-dihydroquinolin-2-yl)benzonitrile], the inhibition at 0.1 µM in assay [1] amounted to 95%; in assay [4] it was 88%. In addition, the EC50 in assay [2] was 100 to 1000 nM; in assay [3], 100 to 1000 nM; in assay [4] (ANGPTL4 expression), 5 nM.
Turning to `N#Cc1ccc(Cl)c(-c2cc(=O)c3cc(Cl)c(Cl)cc3[nH]2)c1` [Example 2, 4-chloro-3-(6,7-dichloro-4-oxo-1,4-dihydroquinolin-2-yl)benzonitrile], the inhibition at 0.1 µM in assay [1] came out at 93%; in assay [4] it was 83%. In addition, the 50% effective concentration (EC50) in assay [2] and in assay [3] was 100 to 1000 nM in each case.
As to `N#Cc1ccc(Br)c(-c2cc(=O)c3c(F)cc(F)cc3[nH]2)c1` [Example 4, 4-bromo-3-(5,7-difluoro-4-oxo-1,4-dihydroquinolin-2-yl)benzonitrile], the results for the inhibition at 0.1 µM in assay [1] and in assay [4] were 94% and 90%, respectively. In addition, the EC50 in assay [2] and in assay [3] was 10 to 100 nM each time.
Consider `N#Cc1ccc(Cl)c(-c2cc(=O)c3cc(F)c(F)cc3[nH]2)c1` [Example 5, 4-chloro-3-(6,7-difluoro-4-oxo-1H-quinolin-2-yl)benzonitrile], for which the inhibition at 0.1 µM was 90% in assay [1] and 86% in assay [4]. In addition, the EC50 in assay [2] and in assay [3] was 1000 to 10000 nM throughout.
Regarding `N#Cc1ccc(Br)c(-c2cc(=O)c3cc(F)c(F)cc3[nH]2)c1` [Example 6, 4-bromo-3-(6,7-difluoro-4-oxo-1,4-dihydroquinolin-2-yl)benzonitrile], in assay [1], the inhibition at 0.1 µM was 93%. Also, the EC50 in assay [2] and in assay [3] was 100 to 1000 nM in each case.
For `N#Cc1ccc(Cl)c(-c2cc(=O)c3c(F)c(-c4ccc(C(F)(F)F)cc4)c(F)cc3[nH]2)c1` [Example 11, 4-chloro-3-(5,7-difluoro-4-oxo-6-(4-(trifluoromethyl)phenyl)-1,4-dihydroquinolin-2-yl)benzonitrile], the inhibition at 0.1 µM was found to be 94% in assay [1] and 88% in assay [4]. In addition, the values for the EC50 in assay [2] and in assay [3] were 100 to 1000 nM and 10 to 100 nM, respectively.
For `N#Cc1ccc(Cl)c(-c2cc(=O)c3c(F)c(N4CCOCC4)c(F)cc3[nH]2)c1` [Example 107, 4-chloro-3-(5,7-difluoro-6-morpholino-4-oxo-1,4-dihydroquinolin-2-yl)benzonitrile], the EC50 in assay [2] and in assay [3] was 100 to 1000 nM throughout. This compound also had an inhibition at 0.1 µM in assay [4] of 80%.
As to `CN(C)[C@H]1CCN(c2c(F)cc3[nH]c(-c4cc(C#N)ccc4Cl)cc(=O)c3c2F)C1` [Example 108, (S)-4-chloro-3-(6-(3-(dimethylamino)pyrrolidin-1-yl)-5,7-difluoro-4-oxo-1,4-dihydroquinolin-2-yl)benzonitrile], the EC50 in assay [2] and in assay [3] was 1000 to 10000 nM in each case. Moreover, the inhibition at 0.1 µM in assay [4] turned out to be 65%.
As for `CN(C)[C@@H]1CCN(c2c(F)cc3[nH]c(-c4cc(C#N)ccc4Cl)cc(=O)c3c2F)C1` [Example 109, (R)-4-chloro-3-(6-(3-(dimethylamino)pyrrolidin-1-yl)-5,7-difluoro-4-oxo-1,4-dihydroquinolin-2-yl)benzonitrile], the EC50 in assay [2] and in assay [3] was 1000 to 10000 nM throughout. Also, 0.1 µM produced 65% inhibition in assay [4].
As to `N#Cc1ccc(Cl)c(-c2cc(=O)c3c(F)c(N4CCS(=O)(=O)CC4)c(F)cc3[nH]2)c1` [Example 110, 4-chloro-3-(6-(1,1-dioxidothiomorpholino)-5,7-difluoro-4-oxo-1,4-dihydroquinolin-2-yl)benzonitrile], the EC50 in assay [2] and in assay [3] was 1000 to 10000 nM each time. Moreover, the inhibition at 0.1 µM in assay [4] came to 37%.
`CN1CCN(c2c(F)cc3[nH]c(-c4cc(C#N)ccc4Cl)cc(=O)c3c2F)CC1=O` [Example 111, 4-chloro-3-(5,7-difluoro-6-(4-methyl-3-oxopiperazin-1-yl)-4-oxo-1,4-dihydroquinolin-2-yl)benzonitrile]: the concentration for a half-maximal effect (EC50) in assay [2] and in assay [3] was 1000 to 10000 nM in each case. In assay [4], this compound gave an inhibition at 0.1 µM of 43%.
For `CN(C)C(=O)C1CCN(c2c(F)cc3[nH]c(-c4cc(C#N)ccc4Cl)cc(=O)c3c2F)CC1` [Example 112, 1-(2-(2-chloro-5-cyanophenyl)-5,7-difluoro-4-oxo-1,4-dihydroquinolin-6-yl)-N,N-dimethylpiperidine-4-carboxamide], the EC50 in assay [2] and in assay [3] was 1000 to 10000 nM throughout. This compound registered an inhibition at 0.1 µM in assay [4] of 66%.
For the compound `CN(C)C(=O)N1CCN(c2c(F)cc3[nH]c(-c4cc(C#N)ccc4Cl)cc(=O)c3c2F)CC1` [Example 113, 4-(2-(2-chloro-5-cyanophenyl)-5,7-difluoro-4-oxo-1,4-dihydroquinolin-6-yl)-N,N-dimethylpiperazine-1-carboxamide], the EC50 in assay [2] and in assay [3] was 1000 to 10000 nM each time. In assay [4], this compound showed an inhibition at 0.1 µM of 80%.
On to `CN(C)C(=O)[C@@H]1CCCN(c2c(F)cc3[nH]c(-c4cc(C#N)ccc4Cl)cc(=O)c3c2F)C1` [Example 114, (R)-1-(2-(2-chloro-5-cyanophenyl)-5,7-difluoro-4-oxo-1,4-dihydroquinolin-6-yl)-N,N-dimethylpiperidine-3-carboxamide], for which the EC50 in assay [2] and in assay [3] was 100 to 1000 nM each time. The inhibition at 0.1 µM in assay [4] was 60%.
With `CN(C)C(=O)[C@H]1CCCN(c2c(F)cc3[nH]c(-c4cc(C#N)ccc4Cl)cc(=O)c3c2F)C1` [Example 115, (S)-1-(2-(2-chloro-5-cyanophenyl)-5,7-difluoro-4-oxo-1,4-dihydroquinolin-6-yl)-N,N-dimethylpiperidine-3-carboxamide], the EC50 is 1000 to 10000 nM in assay [2] and 100 to 1000 nM in assay [3]. The inhibition at 0.1 µM in assay [4] was 80%.
The corresponding values for `CN(C)C(=O)[C@@H]1CCN(c2c(F)cc3[nH]c(-c4cc(C#N)ccc4Cl)cc(=O)c3c2F)C1` [Example 116, (R)-1-(2-(2-chloro-5-cyanophenyl)-5,7-difluoro-4-oxo-1,4-dihydroquinolin-6-yl)-N,N-dimethylpyrrolidine-3-carboxamide] are 1000 to 10000 nM, 100 to 1000 nM and 84%.
The corresponding values for `CN(C)C(=O)[C@H]1CCN(c2c(F)cc3[nH]c(-c4cc(C#N)ccc4Cl)cc(=O)c3c2F)C1` [Example 117, (S)-1-(2-(2-chloro-5-cyanophenyl)-5,7-difluoro-4-oxo-1,4-dihydroquinolin-6-yl)-N,N-dimethylpyrrolidine-3-carboxamide] are 1000 to 10000 nM, 1000 to 10000 nM and 79%.
